Here are results for seven compounds from ChEMBL document CHEMBL5303573, “Mapping human microbiome drug metabolism by gut bacteria and their genes” (Nature, 2019).

Data set [1] can be described thus: The drug is tested on Bifidobacterium breve strain: DSM20213 for biotransformation. The drug concentrations were measured before and after a 12-h incubation by liquid-chromatography-coupled mass spectrometry (LC–MS). Particulars: 2 µM.
Data set [2] can be described thus: The drug is tested on Bifidobacterium ruminantium strain: fecal isolate for biotransformation. The drug concentrations were measured before and after a 12-h incubation by liquid-chromatography-coupled mass spectrometry (LC–MS). Particulars: 2 µM.
A short description of data set [3]: The drug is tested on Collinsella aerofaciens strain: ATCC25986 for biotransformation. The drug concentrations were measured before and after a 12-h incubation by liquid-chromatography-coupled mass spectrometry (LC–MS). Particulars: 2 µM.
Data set [4] is described as follows: The drug is tested on Bacteroides ovatus strain: ATCC8483 for biotransformation. The drug concentrations were measured before and after a 12-h incubation by liquid-chromatography-coupled mass spectrometry (LC–MS). Particulars: 2 µM.
Data set [5] in a line: The drug is tested on Blautia luti strain: DSM14534 for biotransformation. The drug concentrations were measured before and after a 12-h incubation by liquid-chromatography-coupled mass spectrometry (LC–MS). The following applies: 2 µM. The data set is classed as ADME. On the set-up: dose 2 uM, timepoint 0 vs 12 hours.
Data set [6] can be described thus: The drug is tested on Clostridium asparagiforme strain: DSM15981 for biotransformation. The drug concentrations were measured before and after a 12-h incubation by liquid-chromatography-coupled mass spectrometry (LC–MS). The format is ADME. Particulars: enterocloster asparagiformis, 2 µM. Set-up: dose 2 uM, timepoint 0 vs 12 hours.
The nature of data set [7]: The drug is tested on Clostridium sp. strain: fecal isolate for biotransformation. The drug concentrations were measured before and after a 12-h incubation by liquid-chromatography-coupled mass spectrometry (LC–MS). Particulars: 2 µM.
The nature of data set [8]: The drug is tested on Clostridium scindens strain: ATCC35704 for biotransformation. The drug concentrations were measured before and after a 12-h incubation by liquid-chromatography-coupled mass spectrometry (LC–MS). The following applies: 2 µM.
Data set [9] can be described thus: The drug is tested on Eubacterium hallii strain: DSM3353 for biotransformation. The drug concentrations were measured before and after a 12-h incubation by liquid-chromatography-coupled mass spectrometry (LC–MS). The following applies: anaerobutyricum hallii, 2 µM.
Data set [10] is described as follows: The drug is tested on Eubacterium ventriosum strain: ATCC27560 for biotransformation. The drug concentrations were measured before and after a 12-h incubation by liquid-chromatography-coupled mass spectrometry (LC–MS). The data set is classed as ADME. Set-up: dose 2 uM, timepoint 0 vs 12 hours. The following applies: 2 µM.
A short description of data set [11]: The drug is tested on Ruminococcus lactaris strain: ATCC29176 for biotransformation. The drug concentrations were measured before and after a 12-h incubation by liquid-chromatography-coupled mass spectrometry (LC–MS). The following applies: 2 µM.
The nature of data set [12]: The drug is tested on Ruminococcus torques strain: ATCC27756 for biotransformation. The drug concentrations were measured before and after a 12-h incubation by liquid-chromatography-coupled mass spectrometry (LC–MS). The data set is classed as ADME. Particulars: 2 µM. On the set-up: dose 2 uM, timepoint 0 vs 12 hours.
The conditions of data set [13]: bifidobacterium adolescentis, 12 h, 2 µM.
Description: The drug is tested on Bifidobacterium adolescentis strain: ATCC 15703 for biotransformation. The drug concentrations were measured before and after a 12-h incubation by liquid-chromatography-coupled mass spectrometry (LC–MS)
For data set [14] the following is noted: bacteroides fragilis, 12 h, 2 µM.
Description: The drug is tested on Bacteroides fragilis strain: NCTC 9343 for biotransformation. The drug concentrations were measured before and after a 12-h incubation by liquid-chromatography-coupled mass spectrometry (LC–MS)
For data set [15] the following is noted: bacteroides fragilis, 12 h, 2 µM. This is another data set of the same source.
Description: The drug is tested on Bacteroides fragilis strain: 3397 (T10) for biotransformation. The drug concentrations were measured before and after a 12-h incubation by liquid-chromatography-coupled mass spectrometry (LC–MS)
The conditions of data set [16]: bacteroides thetaiotaomicron, 12 h, 2 µM.
Description: The drug is tested on Bacteroides thetaiotaomicron strain: 3731 for biotransformation. The drug concentrations were measured before and after a 12-h incubation by liquid-chromatography-coupled mass spectrometry (LC–MS)
The conditions of data set [17]: roseburia intestinalis, 12 h, 2 µM.
Description: The drug is tested on Roseburia intestinalis strain: L1-82 for biotransformation. The drug concentrations were measured before and after a 12-h incubation by liquid-chromatography-coupled mass spectrometry (LC–MS)
Data set [18] is described as follows: The drug is tested on Bifidobacterium longum subsp. Infantis strain: CCUG52486 for biotransformation. The drug concentrations were measured before and after a 12-h incubation by liquid-chromatography-coupled mass spectrometry (LC–MS). The following applies: 2 µM.
Data set [19] can be described thus: The drug is tested on Bacteroides dorei strain: DSM17855 for biotransformation. The drug concentrations were measured before and after a 12-h incubation by liquid-chromatography-coupled mass spectrometry (LC–MS). The following applies: phocaeicola dorei, 2 µM.
Data set [20] in a line: The drug is tested on Clostridium sporogenes strain: ATCC15579 for biotransformation. The drug concentrations were measured before and after a 12-h incubation by liquid-chromatography-coupled mass spectrometry (LC–MS). Particulars: 2 µM.

As for `CN1CC(=O)N2[C@H](c3ccc4c(c3)OCO4)c3[nH]c4ccccc4c3C[C@@H]2C1=O`, the “Bacterial Biotransformation” value in data set [1] is on record as “Compound NOT metabolized”; in data set [2], “Compound NOT metabolized”; in [3], “Compound NOT metabolized”; in data set [4], “Compound metabolized”; in data set [5], “Compound NOT metabolized”; in data set [6], “Compound NOT metabolized”. The “Bacterial Biotransformation” value in data set [7], in data set [8], in data set [9], in [10], in data set [11] and in [12] was “Compound NOT metabolized” in each case. In addition, the “Bacterial Biotransformation” value in data set [13] was “Compound NOT metabolized”; in data set [14], “Compound NOT metabolized”; in [15], “Compound NOT metabolized”; in [16] it was “Compound metabolized”; in [17], “Compound NOT metabolized”.

As for `CC(=O)OCC(=O)[C@@]1(O)[C@@H](C)C[C@H]2[C@@H]3CCC4=CC(=O)C=C[C@]4(C)[C@@]3(F)[C@@H](O)C[C@@]21C` [BETAMETHASONE ACETATE], the “Bacterial Biotransformation” value in [18] was “Compound NOT metabolized”; in [19], “Compound metabolized”; in data set [5], “Compound NOT metabolized”; in [6] it was “Compound NOT metabolized”; in [7], “Compound metabolized”; in [8] it was “Compound NOT metabolized”. In addition, the “Bacterial Biotransformation” value in [10] is recorded as “Compound NOT metabolized”; in data set [13] it was “Compound NOT metabolized”; in data set [14], “Compound metabolized”; in [15], “Compound metabolized”; in [16], “Compound NOT metabolized”; in data set [17], “Compound NOT metabolized”.

On to `CC(O)(CS(=O)(=O)c1ccc(F)cc1)C(=O)Nc1ccc(C#N)c(C(F)(F)F)c1` (configuration not stated) [BICALUTAMIDE], for which the “Bacterial Biotransformation” value in [18], in [3], in data set [4], in data set [5], in data set [6] and in data set [7] was “Compound NOT metabolized” in each case. The “Bacterial Biotransformation” value in [8], in data set [20], in data set [9], in data set [10], in data set [11] and in data set [12] was “Compound NOT metabolized” each time. Besides, the “Bacterial Biotransformation” value in [13], in data set [15], in data set [16] and in data set [17] was “Compound NOT metabolized” in each case.

Turning to `CNNCc1ccc(C(=O)NC(C)C)cc1` [PROCARBAZINE], the “Bacterial Biotransformation” value in [1], in [18], in data set [3], in [19], in data set [4] and in data set [5] was “Compound NOT metabolized” each time. In addition, the “Bacterial Biotransformation” value in data set [6], in [7], in data set [8], in [20], in data set [9] and in data set [10] was “Compound NOT metabolized” each time. For the same compound, the “Bacterial Biotransformation” value in [11], in data set [12], in data set [13], in data set [14], in data set [15] and in [16] was “Compound NOT metabolized” throughout. In addition, the “Bacterial Biotransformation” value in data set [17] was “Compound NOT metabolized”.

Turning to `COc1cc2nc(N3CCN(C(=O)C4CCCO4)CC3)nc(N)c2cc1OC` (configuration not stated) [TERAZOSIN], the “Bacterial Biotransformation” value in [1], in data set [18], in [3], in data set [19], in data set [4] and in [5] was “Compound NOT metabolized” each time. The “Bacterial Biotransformation” value in [6], in [7], in [20], in [9], in data set [10] and in data set [12] was “Compound NOT metabolized” throughout. In addition, the “Bacterial Biotransformation” value in data set [13], in data set [14], in [15], in [16] and in data set [17] was “Compound NOT metabolized” each time.

Turning to `COc1cc(C(=O)NCc2ccc(OCCN(C)C)cc2)cc(OC)c1OC` [TRIMETHOBENZAMIDE], the “Bacterial Biotransformation” value in [1], in data set [18], in data set [3], in [19], in data set [4] and in data set [5] was “Compound NOT metabolized” each time. For the same compound, the “Bacterial Biotransformation” value in data set [6], in [7], in data set [20], in data set [9], in [10] and in [11] was “Compound NOT metabolized” each time. In addition, the “Bacterial Biotransformation” value in data set [12], in data set [13], in data set [14], in data set [15], in data set [16] and in data set [17] was “Compound NOT metabolized” throughout.

Turning to `CC(=O)CC(c1ccccc1)c1c(O)c2ccccc2oc1=O` (configuration not stated) [WARFARIN], the “Bacterial Biotransformation” value in data set [1], in [18], in data set [3], in data set [19], in data set [4] and in [5] was “Compound NOT metabolized” each time. The “Bacterial Biotransformation” value in data set [6], in [7], in [8], in data set [9], in [10] and in data set [11] was “Compound NOT metabolized” throughout. The “Bacterial Biotransformation” value in data set [12], in [13], in data set [14], in [15], in data set [16] and in [17] was “Compound NOT metabolized” in each case.
